Reference: ChEMBL document CHEMBL4229455, “Synthesis and anticancer activity of novel bisindolylhydroxymaleimide derivatives with potent GSK-3 kinase inhibition” (Bioorg Med Chem, 2018)

Assays:
[1] = molecular target: T1, Serine/threonine-protein kinase haspin (Homo sapiens, UniProt Q8TF76); assay: Inhibition of recombinant human haspin kinase domain expressed in bacteria using histone H3 (1 to 21 residues) peptide as substrate in presence of [gamma-33P]ATP
T1 sequence (Q8TF76 whole entry): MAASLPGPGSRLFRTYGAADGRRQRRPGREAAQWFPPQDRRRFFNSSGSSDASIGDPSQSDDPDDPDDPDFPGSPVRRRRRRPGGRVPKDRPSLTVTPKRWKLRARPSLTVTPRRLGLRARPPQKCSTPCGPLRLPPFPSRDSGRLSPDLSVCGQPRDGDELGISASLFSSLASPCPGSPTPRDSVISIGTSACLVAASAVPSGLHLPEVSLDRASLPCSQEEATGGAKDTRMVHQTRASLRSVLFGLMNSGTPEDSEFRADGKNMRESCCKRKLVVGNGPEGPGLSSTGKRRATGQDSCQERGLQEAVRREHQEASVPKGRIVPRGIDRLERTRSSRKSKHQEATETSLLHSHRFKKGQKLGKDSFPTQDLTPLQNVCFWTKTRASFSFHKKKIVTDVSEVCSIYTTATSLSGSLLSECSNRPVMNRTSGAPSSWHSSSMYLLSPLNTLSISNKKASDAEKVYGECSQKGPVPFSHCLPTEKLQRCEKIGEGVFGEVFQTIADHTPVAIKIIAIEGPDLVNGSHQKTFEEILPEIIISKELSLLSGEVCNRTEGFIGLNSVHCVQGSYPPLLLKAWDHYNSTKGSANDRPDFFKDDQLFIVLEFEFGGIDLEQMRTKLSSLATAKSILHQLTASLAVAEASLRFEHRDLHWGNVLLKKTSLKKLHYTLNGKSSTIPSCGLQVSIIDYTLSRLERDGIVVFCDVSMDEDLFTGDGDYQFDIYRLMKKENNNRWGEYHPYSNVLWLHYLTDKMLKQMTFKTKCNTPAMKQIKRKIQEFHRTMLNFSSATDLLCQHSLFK

A549 = assay: Cytotoxicity against human A549 cells assessed as cell growth at 10 uM after 48 hrs by SRB assay relative to control; format: functional; conditions: A549, 48 h, read-out: Activity
UACC-62 = assay: Cytotoxicity against human UACC62 cells assessed as cell growth at 10 uM after 48 hrs by SRB assay relative to control; format: functional; conditions: UACC-62, 48 h, read-out: Activity
[2] = molecular target: Glycogen synthase kinase-3 (Sus scrofa) (UniProt B2LUN4+I6LNT8); assay: Inhibition of domestic porcine brain full length GSK-3alpha/beta assessed as residual activity at 10 uM using GS-1 as substrate in presence of [gamma-33P]ATP; conditions: Sus scrofa domesticus
SR = assay: Cytotoxicity against human SR cells assessed as cell growth at 10 uM after 48 hrs by SRB assay relative to control; format: functional; conditions: read-out: Activity
Aurora kinase B = Aurora kinase B (Homo sapiens, UniProt Q96GD4); assay: Inhibition of recombinant full length human aurora B expressed in baculovirus infected Sf9 insect cells using MBP as substrate in presence of [gamma-33P]ATP
OVCAR-4 = assay: Cytotoxicity against human OVCAR4 cells assessed as cell growth at 10 uM after 48 hrs by SRB assay relative to control; format: functional; conditions: OVCAR-4, 48 h, read-out: Activity
HOP-62 = assay: Cytotoxicity against human HOP62 cells assessed as cell growth at 10 uM after 48 hrs by SRB assay relative to control; format: functional; conditions: HOP-62, 48 h, read-out: Activity
MDA-MB-435 = assay: Cytotoxicity against human MDA-MB-435 cells assessed as cell growth at 10 uM after 48 hrs by SRB assay relative to control; format: functional; conditions: MDA-MB-435, 48 h, read-out: Activity
TK-10 = assay: Cytotoxicity against human TK10 cells assessed as cell growth at 10 uM after 48 hrs by SRB assay relative to control; format: functional; conditions: TK-10, 48 h, read-out: Activity
[3] = molecular target: Cyclin-dependent kinase 5/CDK5 activator 1 (Homo sapiens, UniProt Q00535); assay: Inhibition of recombinant full length human CDK5/p25 expressed in bacteria using histone H1 as substrate in presence of [gamma-33P]ATP
CDK9/cyclin T1 = CDK9/cyclin T1 (Homo sapiens, UniProt P50750); assay: Inhibition of recombinant full length human CDK9/cyclin T expressed in baculovirus infected Sf9 insect cells using YSPTSPSYSPTSPSYSPTSPSKKKK as substrate in presence of [gamma-33P]ATP
[4] = molecular target: Receptor-interacting serine/threonine-protein kinase 3 (Homo sapiens, UniProt Q9Y572); assay: Inhibition of recombinant full length human RIPK3 expressed in baculovirus infected Sf9 insect cells assessed as residual activity at 10 uM using MBP as substrate in presence of [gamma-33P]ATP
OVCAR-8 = assay: Cytotoxicity against human OVCAR8 cells assessed as cell growth at 10 uM after 48 hrs by SRB assay relative to control; format: functional; conditions: OVCAR-8, 48 h, read-out: Activity
HL-60(TB) = assay: Cytotoxicity against human HL-60(TB) cells assessed as cell growth at 10 uM after 48 hrs by SRB assay relative to control; format: functional; conditions: HL-60, 48 h, read-out: Activity
NCI-H322M = assay: Cytotoxicity against human NCI-H322M cells assessed as cell growth at 10 uM after 48 hrs by SRB assay relative to control; format: functional; conditions: read-out: Activity
CAKI-1 = assay: Cytotoxicity against human Caki1 cells assessed as cell growth at 10 uM after 48 hrs by SRB assay relative to control; format: functional; conditions: CAKI-1, 48 h, read-out: Activity
SK-OV-3 = assay: Cytotoxicity against human SKOV3 cells assessed as cell growth at 10 uM after 48 hrs by SRB assay relative to control; format: functional; conditions: SK-OV-3, 48 h, read-out: Activity
[5] = molecular target: Glycogen synthase kinase-3 (Sus scrofa, UniProt B2LUN4+I6LNT8); assay: Inhibition of domestic porcine brain full length GSK-3alpha/beta using GS-1 as substrate in presence of [gamma-33P]ATP; design: species or system Sus scrofa domesticus
MCF7 = assay: Cytotoxicity against human MCF7 cells assessed as cell growth at 10 uM after 48 hrs by SRB assay relative to control; format: functional; conditions: MCF7, 48 h, read-out: Activity
MOLT-4 = assay: Cytotoxicity against human MOLT4 cells assessed as cell growth at 10 uM after 48 hrs by SRB assay relative to control; format: functional; conditions: MOLT-4, 48 h, read-out: Activity
Hs-578T = assay: Cytotoxicity against human Hs 578T cells assessed as cell growth at 10 uM after 48 hrs by SRB assay relative to control; format: functional; conditions: read-out: Activity
RPMI-8226 = assay: Cytotoxicity against human RPMI8226 cells assessed as cell growth at 10 uM after 48 hrs by SRB assay relative to control; format: functional; conditions: RPMI-8226, 48 h, read-out: Activity
NCI-H522 = assay: Cytotoxicity against human NCI-H522 cells assessed as cell growth at 10 uM after 48 hrs by SRB assay relative to control; format: functional; conditions: NCI-H522, 48 h, read-out: Activity
HOP-92 = assay: Cytotoxicity against human HOP92 cells assessed as cell growth at 10 uM after 48 hrs by SRB assay relative to control; format: functional; conditions: HOP-92, 48 h, read-out: Activity

Sequence of Cyclin-dependent kinase 5/CDK5 activator 1 (Q00535 whole entry): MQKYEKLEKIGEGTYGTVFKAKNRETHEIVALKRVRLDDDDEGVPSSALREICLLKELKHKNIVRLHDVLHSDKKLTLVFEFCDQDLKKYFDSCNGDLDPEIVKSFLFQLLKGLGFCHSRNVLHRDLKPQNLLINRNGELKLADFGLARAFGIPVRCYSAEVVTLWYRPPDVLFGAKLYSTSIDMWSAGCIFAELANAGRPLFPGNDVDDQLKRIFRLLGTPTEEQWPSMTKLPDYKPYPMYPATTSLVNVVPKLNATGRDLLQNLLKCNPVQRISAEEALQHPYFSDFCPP
Sequence of Cyclin-dependent kinase 5/CDK5 activator 1 (Q15078 whole entry, further chain): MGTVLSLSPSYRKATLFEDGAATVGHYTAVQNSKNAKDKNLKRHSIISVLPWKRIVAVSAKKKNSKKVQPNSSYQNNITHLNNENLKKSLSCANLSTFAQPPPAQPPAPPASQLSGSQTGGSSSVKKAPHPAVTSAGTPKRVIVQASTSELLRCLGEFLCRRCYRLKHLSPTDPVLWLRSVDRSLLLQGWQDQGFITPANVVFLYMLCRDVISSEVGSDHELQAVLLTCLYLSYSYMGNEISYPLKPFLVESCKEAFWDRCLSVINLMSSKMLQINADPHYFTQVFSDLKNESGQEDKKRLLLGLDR
Sequence of CDK9/cyclin T1 (O60563 whole entry): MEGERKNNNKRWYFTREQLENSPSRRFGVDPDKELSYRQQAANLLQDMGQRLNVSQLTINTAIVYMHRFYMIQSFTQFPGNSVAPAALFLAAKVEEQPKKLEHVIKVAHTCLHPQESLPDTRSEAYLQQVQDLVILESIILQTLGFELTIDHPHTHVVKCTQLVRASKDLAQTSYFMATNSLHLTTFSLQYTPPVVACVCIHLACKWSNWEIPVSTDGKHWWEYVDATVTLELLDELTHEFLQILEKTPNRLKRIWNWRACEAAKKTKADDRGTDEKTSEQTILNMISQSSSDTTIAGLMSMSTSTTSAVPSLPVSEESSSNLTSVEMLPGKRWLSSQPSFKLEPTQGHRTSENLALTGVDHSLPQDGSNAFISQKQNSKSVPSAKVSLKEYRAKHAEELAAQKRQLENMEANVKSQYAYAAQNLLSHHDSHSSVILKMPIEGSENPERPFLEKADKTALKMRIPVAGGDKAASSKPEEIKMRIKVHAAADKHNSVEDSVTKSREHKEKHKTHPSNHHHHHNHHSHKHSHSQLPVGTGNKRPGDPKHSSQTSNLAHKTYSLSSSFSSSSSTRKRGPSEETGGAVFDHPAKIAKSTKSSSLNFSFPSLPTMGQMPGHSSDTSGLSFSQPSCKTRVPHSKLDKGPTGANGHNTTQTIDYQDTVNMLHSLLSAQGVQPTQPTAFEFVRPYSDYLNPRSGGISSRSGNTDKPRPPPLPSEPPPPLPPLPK
Sequence of CDK9/cyclin T1 (P50750 whole entry): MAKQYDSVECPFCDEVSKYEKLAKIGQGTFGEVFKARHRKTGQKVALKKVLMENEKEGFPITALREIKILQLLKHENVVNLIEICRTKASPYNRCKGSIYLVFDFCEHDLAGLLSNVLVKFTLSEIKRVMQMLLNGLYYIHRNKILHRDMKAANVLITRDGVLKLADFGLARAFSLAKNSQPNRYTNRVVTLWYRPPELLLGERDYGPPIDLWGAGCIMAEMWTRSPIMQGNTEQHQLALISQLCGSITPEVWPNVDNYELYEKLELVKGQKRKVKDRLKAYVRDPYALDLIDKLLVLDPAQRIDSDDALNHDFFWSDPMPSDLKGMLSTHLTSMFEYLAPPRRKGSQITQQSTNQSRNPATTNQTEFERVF
Sequence of Aurora kinase B (Q96GD4 whole entry): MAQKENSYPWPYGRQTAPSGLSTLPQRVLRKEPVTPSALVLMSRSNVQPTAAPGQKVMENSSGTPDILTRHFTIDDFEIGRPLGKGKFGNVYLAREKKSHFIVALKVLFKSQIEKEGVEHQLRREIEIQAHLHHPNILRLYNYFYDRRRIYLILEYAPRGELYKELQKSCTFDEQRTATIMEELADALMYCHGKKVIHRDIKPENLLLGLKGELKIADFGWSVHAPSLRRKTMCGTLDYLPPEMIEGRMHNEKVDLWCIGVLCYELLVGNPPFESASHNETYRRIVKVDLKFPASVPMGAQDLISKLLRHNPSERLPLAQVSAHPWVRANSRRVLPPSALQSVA
Sequence of Receptor-interacting serine/threonine-protein kinase 3 (Q9Y572 whole entry, looked up): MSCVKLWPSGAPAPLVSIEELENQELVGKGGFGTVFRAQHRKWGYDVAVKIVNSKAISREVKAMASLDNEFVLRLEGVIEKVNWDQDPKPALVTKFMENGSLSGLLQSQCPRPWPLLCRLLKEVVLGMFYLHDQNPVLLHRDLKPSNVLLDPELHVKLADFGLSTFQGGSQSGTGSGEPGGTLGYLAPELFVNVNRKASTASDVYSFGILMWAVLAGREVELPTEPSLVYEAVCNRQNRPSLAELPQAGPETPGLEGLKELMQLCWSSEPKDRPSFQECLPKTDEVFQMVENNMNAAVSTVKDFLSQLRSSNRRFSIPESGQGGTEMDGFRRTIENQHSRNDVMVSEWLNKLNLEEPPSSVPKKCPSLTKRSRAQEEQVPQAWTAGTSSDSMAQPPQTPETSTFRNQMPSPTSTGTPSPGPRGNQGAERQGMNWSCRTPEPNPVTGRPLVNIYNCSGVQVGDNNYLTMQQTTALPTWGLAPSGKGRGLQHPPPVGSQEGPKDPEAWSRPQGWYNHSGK

| SMILES | IC50 [1] [µM] | growth at 10 µM (A549) [%] | growth at 10 µM (UACC-62) [%] | Activity [2] [%] | IC50 (Aurora kinase B) [µM] | growth at 10 µM (OVCAR-4) [%] | growth at 10 µM (HOP-62) [%] | growth at 10 µM (MDA-MB-435) [%] | growth at 10 µM (TK-10) [%] | IC50 [3] [µM] | IC50 (CDK9/cyclin T1) [µM] | Activity [4] [%] | growth at 10 µM (OVCAR-8) [%] | growth at 10 µM (NCI-H322M) [%] | growth at 10 µM (CAKI-1) [%] | growth at 10 µM (SK-OV-3) [%] | IC50 [5] [µM] | growth at 10 µM (MCF7) [%] | growth at 10 µM (MOLT-4) [%] | growth at 10 µM (RPMI-8226) [%] | further results |
| --- | --- | --- | --- | --- | --- | --- | --- | --- | --- | --- | --- | --- | --- | --- | --- | --- | --- | --- | --- | --- | --- |
| Cn1cc(C2=C(c3cn(CCCCCC#N)c4ccccc34)C(=O)N(O)C2=O)c2ccccc21 | > 10 | 95.8 | 82 | 8 | > 10 | 116 | 89.6 | 68.1 | 116 | > 10 | 2.1 | 105 | 100 | 98 | 81.3 | 86.5 | 0.27 | 77.7 | 95.7 | 71.2 | growth at 10 µM (SR): 67.2%; growth at 10 µM (HL-60(TB)): 124%; growth at 10 µM (Hs-578T): 93.5% |
| O=C(O)CCCCCn1cc(C2=C(c3c[nH]c4ccccc34)C(=O)N(O)C2=O)c2ccccc21 | > 10 | 98.2 | 95.7 | 8 | > 10 | 113 | 86.8 | 102 | 99 | > 10 | 2 | 100 | 99.4 | 101 | 92.2 | 81 | 0.75 | 102 | 99.7 | 101 | growth at 10 µM (SR): 100%; growth at 10 µM (NCI-H522): 88.3%; growth at 10 µM (HL-60(TB)): 108%; growth at 10 µM (Hs-578T): 103% |
| CC(C)n1cc(C2=C(c3c[nH]c4ccccc34)C(=O)N(O)C2=O)c2ccccc21 | > 10 | 102 | 90 | 2 | > 10 | 111 | 98.6 | 102 | 84.5 | > 10 | > 10 | 97 | 107 | 103 | 78.3 | 102 | 1.5 | 77.1 | 77 | 56.9 | growth at 10 µM (SR): 85.7%; growth at 10 µM (NCI-H522): 76.4%; growth at 10 µM (HL-60(TB)): 82.6%; growth at 10 µM (Hs-578T): 111% |
| N#CCCCCCn1cc(C2=C(c3cn(CCCCCC#N)c4ccccc34)C(=O)NC2=O)c2ccccc21 | > 10 | 85.6 | 99.3 | 11 | > 10 | 81.2 | 118 | 105 | 101 | > 10 | 0.42 | 100 | 89.9 | 103 | 82.5 | 57 | 0.12 | 48.9 |  | 86.8 | growth at 10 µM (HOP-92): 142%; growth at 10 µM (NCI-H522): 88.7%; growth at 10 µM (Hs-578T): 59.7% |
| CC(C)n1cc(C2=C(c3cn(C)c4ccccc34)C(=O)N(O)C2=O)c2ccccc21 | > 10 | 97.1 | 78.2 | -16 | > 10 | 99.6 | 84.6 | 104 | 127 | > 10 | 1.5 | 103 | 94.8 | 91.7 | 72.7 | 95.8 | 0.2 | 91.6 | 82.4 | 68.3 | growth at 10 µM (NCI-H522): 84.7%; growth at 10 µM (HL-60(TB)): 98.7%; growth at 10 µM (Hs-578T): 91.2% |
| N#CCCCCCn1cc(C2=C(c3cn(CCCCCC#N)c4ccccc34)C(=O)N(O)C2=O)c2ccccc21 | > 10 | 51 to 73.6 | 14 to 53.3 | 5 | > 10 | 91.6 | 45 to 66.5 |  | 70 to 84.2 | > 10 | > 10 | 109 | 55 to 87.6 | 45 to 92.3 | 65 to 67 | 45 to 78.5 | 0.75 | 14 to 39.9 | 10 to 49.4 | 39.1 | growth at 10 µM (HOP-92): 25%; growth at 10 µM (NCI-H522): 1 to 54.9%; growth at 10 µM (Hs-578T): 25 to 80% |
| Cn1cc(C2=C(c3cn(C)c4ncccc34)C(=O)NC2=O)c2ccccc21 | > 10 | 21 to 28.8 | 27 to 36.6 | -21 | > 10 | 34 to 59 | 21 to 40.6 | 12.9 to 14 | 26.3 to 33 | 0.8 | 0.08 | 79 | 23 to 53.8 |  | 35 |  | 0.03 | 13 to 22.7 | 8 to 12.6 | 45.4 | growth at 10 µM (HOP-92): 12%; growth at 10 µM (SR): 7 to 12.1%; growth at 10 µM (NCI-H522): 14.3 to 32%; growth at 10 µM (HL-60(TB)): 3.55 to 9% |
| Cn1cc(C2=C(c3c[nH]c4ccccc34)C(=O)N(O)C2=O)c2ccccc21 | > 10 | 91.9 | 77.4 | -18 | > 10 | 103 | 67.9 | 17.1 | 120 | > 10 | 2 | 100 | 95.6 | 81.9 | 61.5 | 92.1 | 0.2 | 30.9 | 79 | 51.7 | growth at 10 µM (SR): 30.9%; growth at 10 µM (NCI-H522): 56.3%; growth at 10 µM (HL-60(TB)): 72.8%; growth at 10 µM (Hs-578T): 96.3% |
